Experimental data reported in US9060971B2, “Combination pharmaceutical agents as inhibitors of HCV replication” (Enanta Pharmaceuticals, Inc., priority 2010, dated 2015).

These compounds were tested on HCV 1b genotype replicon (assay: HCV replicon drug screening assay (quantitative RT-PCR or luciferase), genotype 1b). Conditions: Hepatitis C virus; HCV 1b genotype replicon; quantitative RT-PCR or luciferase assay; read-out: Genotype-1b replicon EC50 Range.
Format: cell-based
Description: HCV replicon cell lines (kindly provided by R. Bartenschlager) isolated from colonies as described by Lohman et. al. (Lohman et al. (1999) Science 285: 110-113, expressly incorporated by reference in its entirety) and used for all experiments. The HCV replicon has the nucleic acid sequence set forth in EMBL Accession No.: AJ242651, the coding sequence of which is from nucleotides 1801 to 8406.
The coding sequence of the published HCV replicon was synthesized and subsequently assembled in a modified plasmid pBR322 (Promega, Madison, Wis.) using standard molecular biology techniques. One replicon cell line (“SGR 11-7”) stably expresses HCV replicon RNA which consists of (i) the HCV 5′UTR fused to the first 12 amino acids of the capsid protein, (ii) the neomycin phosphotransferase gene (neo), (iii) the IRES from encephalomyocarditis virus (EMCV), and (iv) HCV NS2 to NS5B genes and the HCV 3′UTR. Another replicon cell line (“Huh-luc/neo-ET”) described by Vrolijk et. al. (Vrolijk et. al. (2003) Journal of Virological Methods 110:201-209, expressly incorporated by reference in its entirety) stably expresses HCV replicon RNA which consists of (i) the HCV 5′UTR fused to the first 12 amino acids of the capsid protein, (ii) the firefly luciferase reporter gene, (iii) the ubiquitin gene, (iv) the neomycin phosphotransferase gene (neo), (v) the IRES from encephalomyocarditis virus (EMCV), and (vi) HCV NS3 to NS5B genes that harbor cell culture adaptive mutations (E1202G, T12801, K1846T) and the HCV 3′UTR.
These cell lines are maintained at 37° C., 5% CO2, 100% relative humidity in DMEM (Cat#11965-084, Invitrogen), with 10% fetal calf serum (“FCS”, Invitrogen), 1% non-essential amino acids (Invitrogen), 1% of Glutamax (Invitrogen), 1% of 100× penicillin/streptomycin (Cat#15140-122, Invitrogen) and Geneticin (Cat#10131-027, Invitrogen) at 0.75 mg/ml or 0.5 mg/ml for 11-7 and Huh-luc/neo-ET cells, respectively.
EC50 values of single agent compounds and combinations were determined by HCV RNA detection using quantitative RT-PCR, according to the manufacturer's instructions, with a TAQMAN® One-Step RT-PCR Master Mix Reagents Kit (Cat#AB 4309169, Applied Biosystems) on an ABI Model 7500 thermocycler. The TaqMan primers to use for detecting and quantifying HCV RNA are 5′-GCTGCGGCCTGTCGAGCT-3′ (SEQ ID NO: 1), 5′-CAAGGTCGTCTCCGCATAC-3′ (SEQ ID NO: 2) and the probe 5′-FAM-[…]-BHQ-3′ (SEQ ID NO: 3) obtained from Integrated DNA Technologies. HCV RNA is normalized to GAPDH RNA levels in drug-treated cells, which is detected and quantified using the Human GAPDH Endogenous Control Mix (Applied Biosystems, AB 4310884E). Total cellular RNA is purified from 96-well plates using the RNAqueous 96 kit (Ambion, Cat#AM1812). Chemical agent cytotoxicity was evaluated using an MTS assay according to the manufacturer's directions (Promega).
The compounds described herein can be effective against the HCV 1b genotype. It should also be understood that the compounds can inhibit multiple genotypes of HCV. In one embodiment, compounds of Formula (I) are active against the 1a, 1b, 2a, 2b, 3a, 4a, and 5a genotypes. […] The EC50 ranges were classified into the following groups: A>10 nM; B 1-10 nM; C<1 nM. The potential cytotoxicities of each agent were analyzed in parallel by MTS assay and are greater than 3 uM for all agents.

SMILES	EC50
C=C(c1ccc(-c2c[nH]c([C@@H]3CCCN3C(=O)[C@@H](NC(=O)OC)C(C)C)n2)cc1)c1ccc2nc([C@@H]3CCCN3C(=O)[C@@H](NC(=O)OC)C(C)C)[nH]c2c1 [Compound 70]	< 1 nM
COC(=O)N[C@H](C(=O)N1CCC[C@H]1c1ncc(-c2ccc(C#Cc3ccc4nc([C@@H]5C[C@H](F)CN5C(=O)[C@@H](NC(=O)OC)C(C)C)[nH]c4c3)cc2)[nH]1)C(C)C [Compound 109]	< 1 nM
COC(=O)N[C@H](C(=O)N1CCC[C@H]1c1nc2cc(C#Cc3ccc(-c4c[nH]c([C@@H]5CCCN5C(=O)[C@@H](NC(C)=O)C(C)C)n4)cc3)ccc2[nH]1)C(C)C [Compound 86]	< 1 nM
COCCOC(=O)N[C@H](C(=O)N1CCC[C@H]1c1nc2cc(-c3ccc(-c4ccc5[nH]c([C@@H]6CCCN6C(=O)[C@@H](NC(=O)OCCOC)C(C)C)nc5c4)cc3)ccc2[nH]1)C(C)C [Compound 23]	> 10 nM
COC(=O)N[C@H](C(=O)N1CCC[C@H]1c1nc(-c2ccc3cc(-c4ccc5[nH]c([C@@H]6CCCN6C(=O)[C@@H](NC(=O)OC)C(C)C)nc5n4)ccc3c2)c[nH]1)C(C)C [Compound 114]	< 1 nM
COC(=O)N[C@H](C(=O)N1CCC[C@H]1c1nc2cc(CCc3ccc(-c4ccc5[nH]c([C@@H]6CCCN6C(=O)[C@@H](NC(=O)OC)C(C)C)nc5c4)cc3)ccc2[nH]1)C(C)C [Compound 34]	< 1 nM
COC(=O)N[C@H](C(=O)N1CCC[C@H]1c1nc(-c2ccc(C#Cc3ccc4[nH]c([C@@H]5CCCN5C(=O)[C@@H](c5ccccc5)C(C)C)nc4c3)cc2)c[nH]1)C(C)C [Compound 82]	< 1 nM
COC(=O)N[C@H](C(=O)N1CCC[C@H]1c1nc2cc(-c3ccc4nc(-c5ccc6[nH]c([C@@H]7CCCN7C(=O)[C@@H](NC(=O)OC)C(C)C)nc6c5)ncc4c3)ccc2[nH]1)C(C)C [Compound 21]	< 1 nM
COC(=O)N[C@H](C(=O)N1CCC[C@H]1c1nc(-c2ccc(C#Cc3ccc4[nH]c([C@@H]5CCCN5C(=O)[C@@H](NC(=O)OC)[C@@H](C)OC)nc4c3)cc2)c[nH]1)[C@@H](C)OC [Compound 59]	< 1 nM
CCC[C@H](NC(=O)OC)C(=O)N1CCC[C@H]1c1nc2cc(C#Cc3ccc(-c4c[nH]c([C@@H]5CCCN5C(=O)[C@@H](NC(=O)OC)C(C)C)n4)cc3)ccc2[nH]1 [Compound 78]	< 1 nM
COC(=O)N[C@H](C(=O)N1CCC[C@H]1c1nc2cc(C#Cc3ccc(-c4c[nH]c([C@@H]5CCCN5C(=O)[C@@H](c5ccccc5)C(C)C)n4)cc3)ccc2[nH]1)C(C)C [Compound 87]	< 1 nM
O=C(Cc1ccccn1)N1CCC[C@H]1c1nc2cc(-c3ccc(-c4ccc5[nH]c([C@@H]6CCCN6C(=O)Cc6ccccn6)nc5c4)cc3)ccc2[nH]1 [Compound 22]	< 1 nM
COC(=O)N[C@H](C(=O)N1CCC[C@H]1c1nc2cc(C#Cc3ccc(-c4c[nH]c([C@@H]5CCCN5C(=O)[C@@H](NC(=O)OC)C(C)C)n4)cc3)ccc2[nH]1)c1ccccc1 [Compound 84]	< 1 nM
COC(=O)N[C@H](C(=O)N1CCC[C@H]1c1nc(C#Cc2ccc(-c3ccc4[nH]c([C@@H]5CCCN5C(=O)[C@@H](NC(=O)OC)C(C)C)nc4c3)cc2)c[nH]1)C(C)C [Compound 55]	< 1 nM
COC(=O)N[C@H](C(=O)N1CCC[C@H]1c1nc(-c2ccc3cc(-c4ccc5[nH]c([C@@H]6[C@H]7CC[C@H](C7)N6C(=O)[C@@H](NC(=O)OC)C(C)C)nc5c4)ccc3c2)c[nH]1)C(C)C [Compound 129]	< 1 nM
COC(=O)N[C@H](C(=O)N1CCC[C@H]1c1nc2cc(-c3ccc4cc(-c5c[nH]c([C@@H]6CCCN6C(=O)[C@@H](NC(=O)OC)[C@@H](C)OC)n5)ccc4c3)ccc2[nH]1)[C@@H](C)O [Compound 53]	< 1 nM
COC(=O)N[C@@H](C(=O)N1CCC[C@H]1c1nc(-c2ccc(C#Cc3ccc4[nH]c([C@@H]5CCCN5C(=O)[C@H](NC(=O)OC)c5ccccc5)nc4c3)cc2)n[nH]1)c1ccccc1 [Compound 39]	< 1 nM

SMILES	EC50
COC(=O)N[C@H](C(=O)N1CCC[C@H]1c1nc(-c2ccc(C#Cc3cc(F)c4[nH]c([C@@H]5CCCN5C(=O)[C@@H](NC(=O)OC)C(C)C)nc4c3)cc2)c[nH]1)C(C)C [Compound 64]	< 1 nM
COC(=O)N[C@@H](CC(C)C)C(=O)N1CCC[C@H]1c1nc2cc(-c3ccc(-c4ccc5[nH]c([C@@H]6CCCN6C(=O)[C@H](CC(C)C)NC(=O)OC)nc5c4)cc3)ccc2[nH]1 [Compound 25]	< 1 nM
COC(=O)N[C@H](C(=O)N1CCC[C@H]1c1nc2cc(-c3ccc4cc(-c5ccc6[nH]c([C@@H]7CCCN7C(=O)[C@@H](NC(=O)OC)C(C)C)nc6c5)ccc4c3)ccc2[nH]1)C(C)C [Compound 20]	< 1 nM
COC(=O)N[C@H](C(=O)N1CCC[C@H]1c1ncc(-c2ccc(C#Cc3ccc4nc([C@@H]5CC[C@H](C)N5C(=O)[C@@H](NC(=O)OC)C(C)C)[nH]c4c3)cc2)[nH]1)C(C)C [Compound 108]	< 1 nM
COC(=O)N[C@H](C(=O)N1CCC[C@H]1c1nc(-c2ccc(CCCc3ccc4nc([C@@H]5CCCN5C(=O)[C@@H](NC(=O)OC)C(C)C)[nH]c4c3)s2)c[nH]1)C(C)C [Compound 47]	< 1 nM
COC(=O)N[C@H](C(=O)N1CCC[C@H]1c1ncc(-c2ccc(C#Cc3ccc4nc([C@@H]5C[C@H]6C[C@H]6N5C(=O)[C@@H](NC(=O)OC)C(C)C)[nH]c4c3)cc2)[nH]1)C(C)C [Compound 107]	< 1 nM
COC(=O)N[C@@H](C(=O)N1CCC[C@H]1c1ncc(-c2ccc(CCc3ccc4nc([C@@H]5CCCN5C(=O)[C@H](NC(=O)OC)c5ccccc5)[nH]c4c3)cc2)[nH]1)c1ccccc1 [Compound 37]	< 1 nM
COC(=O)N[C@H](C(=O)N1CCC[C@H]1c1nc2cc(C#Cc3ccc(-c4c[nH]c([C@@H]5CCCN5C(=O)OC(C)(C)C)n4)cc3)ccc2[nH]1)C(C)C [Compound 85]	< 1 nM
COC(=O)N[C@H](C(=O)N1CCC[C@H]1c1nc(-c2ccc(/C=C/c3ccc4[nH]c([C@@H]5CCCN5C(=O)[C@@H](NC(=O)OC)C(C)C)nc4c3)s2)c[nH]1)C(C)C [Compound 45]	< 1 nM
COC(=O)N[C@@H](C(=O)N1CCC[C@H]1c1nc2ccc(C#Cc3ccc(-c4cnc([C@@H]5CCCN5C(=O)[C@H](NC(=O)OC)c5ccccc5)o4)cc3)cc2[nH]1)c1ccccc1 [Compound 103]	< 1 nM
COC(=O)N[C@H](C(=O)N1CCC[C@H]1c1ncc(-c2ccc(-c3ccc(-c4ccc5nc([C@@H]6CCCN6C(=O)[C@@H](NC(=O)OC)C(C)C)[nH]c5c4)cc3)cc2)[nH]1)C(C)C [Compound 74]	< 1 nM
COC(=O)N[C@H](C(=O)N1CCC[C@H]1c1nc(-c2ccc(C#Cc3ccc4[nH]c([C@@H]5CCCN5C(=O)[C@@H](NC(=O)OC)C(C)C)nc4c3)cc2)c[nH]1)c1ccccc1 [Compound 89]	< 1 nM
CCOC(=O)N[C@H](C(=O)N1CCC[C@H]1c1nc2cc(C#Cc3ccc(-c4c[nH]c([C@@H]5CCCN5C(=O)[C@@H](NC(=O)OC)C(C)C)n4)cc3)ccc2[nH]1)C(C)C [Compound 63]	< 1 nM
COC(=O)N[C@H](C(=O)N1CCC[C@H]1c1nc(-c2ccc(CCc3ccc4[nH]c([C@@H]5CCCN5C(=O)[C@@H](NC(=O)OC)C(C)C)nc4c3)cc2)c[nH]1)C(C)C [Compound 71]	< 1 nM
CCC(NC(=O)OC)(C(=O)N1CCC[C@H]1c1nc2ccc(C#Cc3ccc(-c4cnc([C@@H]5CCCN5C(=O)[C@@H](NC(=O)OC)C(C)C)[nH]4)cc3)cc2[nH]1)c1ccccc1 (stereo partly drawn) [Compound 102]	< 1 nM
COC(=O)N[C@H](C(=O)N1CCC[C@H]1c1nc(-c2ccc(C#Cc3ccc4[nH]c([C@@H]5CCCN5C(=O)[C@@H](OC(=O)OC)C(C)C)nc4c3)cc2)c[nH]1)C(C)C [Compound 62]	< 1 nM
